Test results as given in publication PMC5797143, “Epigenetic modulation of inflammation and synaptic plasticity promotes resilience against stress in mice” (Nature Communications, 2018).
Like-named read-outs stand apart in the source and are kept apart here.

Legend:
CYP2C8 = target: T1, CYP2C8 (Homo sapiens, UniProt P10632); experiment: CYP inhibition in human liver microsomes; type: in vitro ADME; conditions: read-out: CPY450 inhibition (IC50), CYP2C8
T1 construct: from tissue; host or cells: human liver microsomes
Protocol: (§1) CYP inhibition was tested in isolated microsomes for CYP2D6, CYP3A4, CYP1A2, CYP2C9, CYP2C19, CYP2C8, and CYP2B6[66]. Briefly, increasing concentrations of Mal-gluc or DHCA were incubated with human liver microsomes (HLM) in the presence of 2 mM NADPH in 100 mM potassium phosphate (pH 7.4) containing 5 mM magnesium chloride and a specific probe substrate for different CYPs: tacrine (CYP1A2), amodiaquine (CYP2C8), tolbutamide (CYP2C9), S-mephenytoin (CYP2C19), dextromethorphan (CYP2D6), midazolam/testosterone (CYP3A4/5), or bupropion (CYP2B6). CYP-specific inhibitors were included alongside the test compound as a positive control, including α-naphthoflavone (CYP1A2), quercetin (CYP2C8), ketoconazole (CYP3A4/5), quinidine (CYP2D6), sulfaphenazole (CYP2C9), and ticlopidine (CYP2C19, CYP2B6). After incubation at 37 °C, the reactions were terminated by addition of a methanol-containing internal standard (propranolol) for analytical quantification. The quenched samples were then incubated at 4 °C for 10 min and centrifuged at 4 °C for 10 min. The supernatant was removed and the probe substrate metabolite was analyzed by LC-MS/MS (Agilent Technologies Triple Quad LC-MS/MS).

CYP2C9 = target: T2, CYP2C9 (Homo sapiens, UniProt P11712); experiment: CYP inhibition in human liver microsomes; type: in vitro ADME; conditions: read-out: CPY450 inhibition (IC50), CYP2C9
T2 construct: from tissue; host or cells: human liver microsomes
Protocol: as §1

CYP1A2 = target: T3, CYP1A2 (Homo sapiens, UniProt P05177); experiment: CYP inhibition in human liver microsomes; type: in vitro ADME; conditions: read-out: CPY450 inhibition (IC50), CYP1A2
T3 construct: from tissue; host or cells: human liver microsomes
Protocol: as §1

CYP2C19 = target: T4, CYP2C19 (Homo sapiens, UniProt P33261); experiment: CYP inhibition in human liver microsomes; type: in vitro ADME; conditions: read-out: CPY450 inhibition (IC50), CYP2C19
T4 construct: from tissue; host or cells: human liver microsomes
Protocol: as §1

CYP3A4 = CYP3A4 (Homo sapiens, UniProt P08684); experiment: CYP inhibition in human liver microsomes; type: in vitro ADME; conditions: read-out: CPY450 inhibition (IC50), CYP3A4
Protocol: as §1

CYP2D6 = target: T5, CYP2D6 (Homo sapiens, UniProt P10635); experiment: CYP inhibition in human liver microsomes; type: in vitro ADME; conditions: read-out: CPY450 inhibition (IC50), CYP2D6
T5 construct: from tissue; host or cells: human liver microsomes
Protocol: as §1

CYP2B6 = target: T6, CYP2B6 (Homo sapiens, UniProt P20813); experiment: CYP inhibition in human liver microsomes; type: in vitro ADME; conditions: read-out: CPY450 inhibition (IC50), CYP2B6
T6 construct: from tissue; host or cells: human liver microsomes
Protocol: as §1

[1] = Brain homogenate stability; type: in vitro ADME
Protocol: Compound stability in mouse and human plasma and in mouse brain homogenate were conducted, [45]. Specifically, Mal-gluc or DHCA was incubated in duplicate with plasma at 37 °C and samples were taken at various time points and mixed with three volumes of ice-cold Stop Solution (methanol containing propranolol, diclofenac, or other internal standard). Samples were centrifuged to remove precipitated protein, and the supernatants were analyzed by LC/MS/MS to quantitate for remaining test compound. Data are converted to percentage remaining by dividing by the time zero concentration value. Data are fit to a first-order decay model to determine half-life. Plasma protein binding were conducted using both mouse and human plasma.

[2] = In vivo safety: plasma ALP, AST, ALT, BUN; design: species or system mouse; conditions: 2 weeks, all doses tested
Protocol: We then initiated dose response and safety studies in mice to determine testing dosages and safety of DHCA and Mal-gluc. C57BL/6 mice were treated with either DHCA (doses ranging from 50 µg to 50 mg/kg-BW/day) or Mal-gluc (doses ranging from 50 ng to 5 mg/kg-BW/day) for 2 weeks to simulate long-term administration. Mice treated with DHCA were challenged with intraperitoneal (i.p.) injection of 0.4 mg/kg-BW LPS and plasma levels of IL-6 were measured 6 h post injection. […] Following common discovery-stage practices, we measured the plasma levels of alkaline phosphatase (ALP), aspartate aminotransferase (AST), and alanine aminotransferase (ALT) for liver function and blood urea nitrogen (BUN) for renal function.
Male C57BL/6 J mice (8-week-old) were placed on a polyphenol-free AIN-93M diet and treated with various doses of DHCA (vehicle, 50 µg, 500 µg, 5 mg, and 50 mg/kg-BW/day), delivered through their drinking water for two weeks. Animals were then sacrificed and plasma was collected for routine biochemistry panel analysis including ALP, ALT, and AST for liver function and blood urea nitrogen (BUN) content for kidney function. A separate group of mice was similarly treated and challenged with an i.p. injection of 0.4 mg/kg body weight LPS and plasma was collected 6 h post injection for IL-6 analysis. […]

[3] = tested on: enzymes involved in de novo methylation and demethylation; experiment: Expression of de novo methylation/demethylation enzymes in MSN-enriched primary culture; type: cell-based, mouse; conditions: MSN-enriched primary cultures
Source text: Stress-induced reduction of Rac1 expression is associated with a repressed chromatin state surrounding the promoter region of Rac1 in the NAc[11]. Since Mal-gluc can cross the BBB, we hypothesized that Mal-gluc may promote Rac1 expression, in part, by modulating chromatin acetylation. We first assessed the effect of Mal-gluc on HDACs that play key roles in chromatin deacetylation. […] Using site directed quantitative chromatin immunoprecipitation (qCHIP), we examined the permissive histone H3 acetylation (AcH3) in Mal-gluc treated MSN-enriched primary cultures.
Total RNA from MSN-enriched cultures or brain NAc was isolated using the RNeasy Mini Kit (Qiagen, Valencia, CA, USA) and reverse transcribed. Gene expression was measured in four replicates by quantitative RT-PCR using Maxima SYBR Green master mix (Fermentas) in ABI Prism 7900HT. Primer sequences are listed in Supplementary Table 2. Mouse hypoxanthine phosphoribosyltransferase (HPRT) expression level was used as an internal control. Data were normalized using the 2^-ΔΔCt method. Levels of target gene mRNAs were expressed relative to those in control cultures or mice and plotted in GraphPad Prism.

T4 sequence (P33261 whole entry): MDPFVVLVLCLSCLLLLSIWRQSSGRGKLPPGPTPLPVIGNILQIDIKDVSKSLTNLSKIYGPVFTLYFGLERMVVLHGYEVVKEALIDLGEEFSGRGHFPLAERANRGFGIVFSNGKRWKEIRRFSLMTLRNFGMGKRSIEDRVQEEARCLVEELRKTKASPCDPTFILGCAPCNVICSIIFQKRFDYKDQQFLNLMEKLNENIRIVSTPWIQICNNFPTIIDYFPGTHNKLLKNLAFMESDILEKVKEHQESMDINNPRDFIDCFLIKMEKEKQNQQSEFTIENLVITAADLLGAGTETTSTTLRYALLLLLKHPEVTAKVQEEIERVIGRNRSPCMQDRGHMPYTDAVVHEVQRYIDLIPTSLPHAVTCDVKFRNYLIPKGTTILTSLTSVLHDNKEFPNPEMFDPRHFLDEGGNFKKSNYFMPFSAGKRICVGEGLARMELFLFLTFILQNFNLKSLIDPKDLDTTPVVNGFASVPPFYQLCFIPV
T1 sequence (P10632 whole entry): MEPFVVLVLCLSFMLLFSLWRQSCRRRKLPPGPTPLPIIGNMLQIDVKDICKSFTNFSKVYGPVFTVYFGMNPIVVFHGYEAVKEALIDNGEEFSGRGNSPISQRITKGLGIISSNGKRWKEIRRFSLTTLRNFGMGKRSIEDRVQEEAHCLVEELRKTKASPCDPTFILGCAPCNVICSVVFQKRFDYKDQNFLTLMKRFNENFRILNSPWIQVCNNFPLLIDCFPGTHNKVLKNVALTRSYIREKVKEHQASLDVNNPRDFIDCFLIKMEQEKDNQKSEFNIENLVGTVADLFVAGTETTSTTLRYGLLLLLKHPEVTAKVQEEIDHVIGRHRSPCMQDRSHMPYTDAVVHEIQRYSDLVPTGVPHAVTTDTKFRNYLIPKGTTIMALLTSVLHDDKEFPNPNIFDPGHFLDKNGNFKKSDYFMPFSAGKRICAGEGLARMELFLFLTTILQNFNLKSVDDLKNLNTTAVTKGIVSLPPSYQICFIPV
T2 sequence (P11712 whole entry): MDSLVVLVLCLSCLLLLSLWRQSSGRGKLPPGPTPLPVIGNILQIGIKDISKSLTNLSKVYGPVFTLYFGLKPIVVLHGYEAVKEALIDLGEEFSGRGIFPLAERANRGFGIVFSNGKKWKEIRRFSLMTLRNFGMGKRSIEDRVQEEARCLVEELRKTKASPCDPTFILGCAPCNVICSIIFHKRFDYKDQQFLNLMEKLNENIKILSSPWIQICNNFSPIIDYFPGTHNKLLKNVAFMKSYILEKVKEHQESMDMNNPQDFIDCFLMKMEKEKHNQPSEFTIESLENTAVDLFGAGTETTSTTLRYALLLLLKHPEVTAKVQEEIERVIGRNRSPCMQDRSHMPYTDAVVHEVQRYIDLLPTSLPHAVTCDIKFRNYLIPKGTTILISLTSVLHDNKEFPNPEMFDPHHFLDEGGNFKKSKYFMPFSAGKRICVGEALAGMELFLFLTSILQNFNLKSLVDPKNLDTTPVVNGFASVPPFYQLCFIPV
T6 sequence (P20813 whole entry): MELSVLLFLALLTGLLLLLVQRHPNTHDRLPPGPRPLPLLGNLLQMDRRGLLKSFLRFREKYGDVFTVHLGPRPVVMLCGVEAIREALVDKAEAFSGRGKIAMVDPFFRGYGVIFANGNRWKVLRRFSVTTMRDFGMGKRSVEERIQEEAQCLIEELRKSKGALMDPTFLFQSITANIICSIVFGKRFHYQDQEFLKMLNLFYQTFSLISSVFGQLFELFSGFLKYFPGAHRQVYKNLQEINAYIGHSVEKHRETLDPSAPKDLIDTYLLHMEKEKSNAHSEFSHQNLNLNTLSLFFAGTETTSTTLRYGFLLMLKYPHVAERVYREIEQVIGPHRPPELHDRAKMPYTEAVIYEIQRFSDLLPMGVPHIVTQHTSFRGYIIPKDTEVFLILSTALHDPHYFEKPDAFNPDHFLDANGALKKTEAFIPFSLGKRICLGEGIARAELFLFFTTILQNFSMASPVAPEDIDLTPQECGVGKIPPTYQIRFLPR
T3 sequence (P05177 whole entry): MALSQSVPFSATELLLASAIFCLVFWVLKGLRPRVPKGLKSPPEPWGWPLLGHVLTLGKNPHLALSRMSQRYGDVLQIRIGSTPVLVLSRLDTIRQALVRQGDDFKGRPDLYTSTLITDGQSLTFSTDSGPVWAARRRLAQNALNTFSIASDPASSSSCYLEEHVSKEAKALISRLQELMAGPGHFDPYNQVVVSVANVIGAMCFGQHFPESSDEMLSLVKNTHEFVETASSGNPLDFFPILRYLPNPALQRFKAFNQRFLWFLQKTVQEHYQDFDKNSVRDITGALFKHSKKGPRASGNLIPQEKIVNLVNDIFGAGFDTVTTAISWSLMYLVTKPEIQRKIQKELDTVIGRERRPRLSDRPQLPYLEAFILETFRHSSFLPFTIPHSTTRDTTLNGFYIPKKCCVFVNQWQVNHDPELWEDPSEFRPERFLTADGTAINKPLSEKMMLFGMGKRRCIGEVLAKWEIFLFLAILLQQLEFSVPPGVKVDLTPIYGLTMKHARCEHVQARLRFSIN
Chain of CYP3A4 (P08684 2-503): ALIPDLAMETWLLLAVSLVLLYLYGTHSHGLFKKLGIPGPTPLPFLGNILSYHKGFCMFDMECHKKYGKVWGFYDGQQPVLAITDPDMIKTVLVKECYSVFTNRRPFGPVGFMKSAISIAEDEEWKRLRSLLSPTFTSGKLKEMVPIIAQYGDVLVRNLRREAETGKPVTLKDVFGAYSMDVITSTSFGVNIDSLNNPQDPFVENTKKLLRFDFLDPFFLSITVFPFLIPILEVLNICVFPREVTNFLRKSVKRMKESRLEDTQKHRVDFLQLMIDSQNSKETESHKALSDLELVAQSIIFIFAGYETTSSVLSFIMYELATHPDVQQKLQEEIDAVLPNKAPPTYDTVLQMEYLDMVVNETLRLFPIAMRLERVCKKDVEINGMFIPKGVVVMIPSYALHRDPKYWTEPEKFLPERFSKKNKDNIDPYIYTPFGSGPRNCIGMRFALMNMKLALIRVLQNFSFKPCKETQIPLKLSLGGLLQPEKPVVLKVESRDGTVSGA
T5 sequence (P10635 whole entry): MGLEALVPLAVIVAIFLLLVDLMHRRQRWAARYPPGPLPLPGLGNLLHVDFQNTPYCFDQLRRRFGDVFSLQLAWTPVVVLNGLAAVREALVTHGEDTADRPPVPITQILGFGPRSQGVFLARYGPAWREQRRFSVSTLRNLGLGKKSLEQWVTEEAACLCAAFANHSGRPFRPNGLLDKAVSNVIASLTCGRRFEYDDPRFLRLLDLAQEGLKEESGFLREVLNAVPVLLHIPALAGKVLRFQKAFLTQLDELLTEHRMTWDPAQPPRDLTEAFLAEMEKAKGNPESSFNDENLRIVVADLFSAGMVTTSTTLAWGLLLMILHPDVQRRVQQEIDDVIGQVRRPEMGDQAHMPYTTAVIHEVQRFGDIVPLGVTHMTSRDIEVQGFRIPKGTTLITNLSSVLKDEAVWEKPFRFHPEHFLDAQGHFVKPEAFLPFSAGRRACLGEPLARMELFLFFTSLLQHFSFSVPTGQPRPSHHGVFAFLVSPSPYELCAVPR

SMILES	IC50 (CYP2C8)	IC50 (CYP2C9)	IC50 (CYP1A2)	IC50 (CYP2C19)	IC50 (CYP3A4; human, pH 7.4, probe midazolam/testosterone)	IC50 (CYP2D6)	IC50 (CYP2B6)	half-life ([1]; mouse)	plasma ALP, AST, ALT (liver function) and BUN (renal function) [2]	IC50 (CYP3A4)	expression of enzymes of de novo methylation and demethylation [3]	Brain homogenate stability, Half-life (mouse homogenate) [1]
O=C(O)CCc1ccc(O)c(O)c1 [DHCA, 3(3,4-dihydroxy-phenyl) propionic acid]	> 25 µM	> 25 µM	> 25 µM	> 25 µM	> 25 µM	> 25 µM	> 25 µM	16.1 min	neither phytochemical induced significant changes in any of the indexes			
COc1cc(-c2[o+]c3cc(O)cc(O)c3cc2O[C@@H]2O[C@H](CO)[C@@H](O)[C@H](O)[C@H]2O)cc(OC)c1O [Mal-gluc]	> 25 µM	> 25 µM	> 25 µM	> 25 µM		> 25 µM	> 25 µM		neither phytochemical induced significant changes in any of the indexes	> 25 µM	did not affect	29.4 min
